The series can be described thus: Intramolecular Friedel-Crafts arylation (C(vinyl)-C(aryl) bond) of vinyl cation from vinyl tosylate; [Li]+[B(C6F5)4]- 10 mol%, LiH 5 equiv. Conditions: 1,2-dichlorobenzene, 16.7 mM, 140.0 °C.

On to `Cc1ccc(S(=O)(=O)N2CCc3c(Cl)cccc3C(=C3CCCCC3)c3ccccc32)cc1` [1 -> 2], for which the ring closure, isolated yield (from Cc1ccc(S(=O)(=O)OC(=C2CCCCC2)c2ccccc2N(CCc2ccccc2Cl)S(=O)(=O)c2ccc(C)cc2)cc1, 8-membered ring, 18.0 h) was 73%.

Consider `COc1ccc(CC2Cc3cc(OC)ccc3C(=C(C)C)c3ccccc3S2)cc1` (stereo not drawn) [28 -> 29a (NMR yield)], for which the ring closure, isolated yield (from COc1ccc(CC(Cc2cccc(OC)c2)Sc2ccccc2C(OS(=O)(=O)c2ccc(C)cc2)=C(C)C)cc1, 8-membered ring) stood at 25%.

In the case of `CC(C)=C1c2ccccc2CCCN(S(=O)(=O)c2ccc(C)cc2)c2ccccc21` [SI-11 -> 6], where the note is “from CC(C)=C(OS(=O)(=O)c1ccc(C)cc1)c1ccccc1N(CCCc1ccccc1)S(=O)(=O)c1ccc(C)cc1, 9-membered ring, 36.0 h”, the ring closure, isolated yield is 82%.

For the molecule `CC(C)=C1c2ccccc2CCSc2ccccc21` [SI-14 -> 8], the ring closure, isolated yield (from CC(C)=C(OS(=O)(=O)c1ccc(C)cc1)c1ccccc1SCCc1ccccc1, 8-membered ring) came out at 46%.

Turning to `CC(C)=C1c2ccccc2CCN(S(=O)(=O)c2ccc(C)cc2)c2ccccc21` [SI-16 -> 5], the ring closure, isolated yield (from CC(C)=C(OS(=O)(=O)c1ccc(C)cc1)c1ccccc1N(CCc1ccccc1)S(=O)(=O)c1ccc(C)cc1, 8-membered ring, 36.0 h) came to 56%.

Turning to `CC(C)=C1c2ccccc2CCCc2ccccc21` [SI-20 -> 9], the ring closure, isolated yield (from CC(C)=C(OS(=O)(=O)c1ccc(C)cc1)c1ccccc1CCCc1ccccc1, 8-membered ring) turned out to be 81%.

`Cc1ccc(S(=O)(=O)N2CCc3ccc(N(C)C)cc3C(=C3CCCCC3)c3ccccc32)cc1` [SI-24 -> 11]: the ring closure, isolated yield (from Cc1ccc(S(=O)(=O)OC(=C2CCCCC2)c2ccccc2N(CCc2ccc(N(C)C)cc2)S(=O)(=O)c2ccc(C)cc2)cc1, 8-membered ring) is 62%.

For the molecule `COc1ccc2c(c1)C(=C1CCCCC1)c1ccccc1N(S(=O)(=O)c1ccc(C)cc1)CC2` [SI-27 -> 12], the ring closure, isolated yield (from COc1ccc(CCN(c2ccccc2C(OS(=O)(=O)c2ccc(C)cc2)=C2CCCCC2)S(=O)(=O)c2ccc(C)cc2)cc1, 8-membered ring) turned out to be 76%.

In the case of `CC(C)=C1c2cc(O[Si](C)(C)C(C)(C)C)ccc2CCN(S(=O)(=O)c2ccc(C)cc2)c2ccccc21` [SI-33 -> 13], the ring closure, isolated yield (from CC(C)=C(OS(=O)(=O)c1ccc(C)cc1)c1ccccc1N(CCc1ccc(O[Si](C)(C)C(C)(C)C)cc1)S(=O)(=O)c1ccc(C)cc1, 8-membered ring) worked out at 79%.

With `Cc1ccc(S(=O)(=O)N2CCc3ccc(Br)cc3C(=C3CCCC3)c3ccccc32)cc1` [SI-36 -> 15], the ring closure, isolated yield (from Cc1ccc(S(=O)(=O)OC(=C2CCCC2)c2ccccc2N(CCc2ccc(Br)cc2)S(=O)(=O)c2ccc(C)cc2)cc1, 8-membered ring) turned out to be 79%.

Turning to `Cc1ccc(S(=O)(=O)N2CCc3sccc3C(=C3CCCCC3)c3ccccc32)cc1` [SI-38 -> 18], for the setting “from Cc1ccc(S(=O)(=O)OC(=C2CCCCC2)c2ccccc2N(CCc2cccs2)S(=O)(=O)c2ccc(C)cc2)cc1, 8-membered ring, 20.0 h”, the ring closure, isolated yield was 73%.

In the case of `CC(C)=C1c2ccccc2CCN(S(=O)(=O)c2ccc(C)cc2)c2sc3c(c21)CCCC3` [SI-42 -> 19 (120 C)], for the setting “from CC(C)=C(OS(=O)(=O)c1ccc(C)cc1)c1c(N(CCc2ccccc2)S(=O)(=O)c2ccc(C)cc2)sc2c1CCCC2, 8-membered ring, 20.0 h”, the ring closure, isolated yield turned out to be 85%.

As to `CC(C)=C1c2ccccc2CCCOc2ccccc21` [SI-45 -> 10], for the setting “from CC(C)=C(OS(=O)(=O)c1ccc(C)cc1)c1ccccc1CCCOc1ccccc1, 9-membered ring, 48.0 h”, the ring closure, isolated yield was 65%.

`COc1ccc2c(c1)N(S(=O)(=O)c1ccc(C)cc1)CCc1ccccc1C2=C(C)C` [SI-46 -> 16]: the ring closure, isolated yield (from COc1ccc(C(OS(=O)(=O)c2ccc(C)cc2)=C(C)C)c(N(CCc2ccccc2)S(=O)(=O)c2ccc(C)cc2)c1, 8-membered ring, 24.0 h) is 78%.

With `Cc1ccc(S(=O)(=O)N2CCCCc3ccccc3C(=C3CCCCC3)c3ccccc32)cc1` [precursor of 7 (n.d.)], the ring closure, isolated yield (from Cc1ccc(S(=O)(=O)OC(=C2CCCCC2)c2ccccc2N(CCCCc2ccccc2)S(=O)(=O)c2ccc(C)cc2)cc1, 10-membered ring) came out at 0%.

In the case of `Cc1ccc(S(=O)(=O)N2CCCc3ccc(C(F)(F)F)cc3C(=C3CCCCC3)c3ccccc32)cc1` [precursor of 14 (n.d.)], the ring closure, isolated yield (from Cc1ccc(S(=O)(=O)OC(=C2CCCCC2)c2ccccc2N(CCCc2ccc(C(F)(F)F)cc2)S(=O)(=O)c2ccc(C)cc2)cc1, 9-membered ring) was 0%.

In the case of `CC(C)=C1c2ccccc2CCN(S(=O)(=O)c2ccc(C)cc2)c2cc(C(F)(F)F)ccc21` [precursor of 17 (n.d., 160 C)], the ring closure, isolated yield (from CC(C)=C(OS(=O)(=O)c1ccc(C)cc1)c1ccc(C(F)(F)F)cc1N(CCc1ccccc1)S(=O)(=O)c1ccc(C)cc1, 8-membered ring) turned out to be 0%.

For `CC1=C(c2ccccc2)c2ccccc2CCCC1` [precursor of 20 (n.d.)], the ring closure, isolated yield (from CC(CCCCc1ccccc1)=C(OS(=O)(=O)c1ccc(C)cc1)c1ccccc1, 8-membered ring) was found to be 0%.
